Where “and” joins values, the source holds several entries; their conditions need not be identical. Equal entries are not always repeated.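 Dose response: 5 concentrations. Exposure: 48 h. Format: 96-well plates. Endpoint: linear interpolation; highest concentration if not reached. GI50 = concentration required for 50% inhibition of growth. TGI is the concentration that stops growth completely.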
Columns and labels:
Test in all cases: NCI-60 cell line screen, 48 h
TK-10 renal = test system: TK-10 renal
RXF 393 renal = test system: RXF 393 renal
A549 NSCLC = test system: A549 NSCLC
HCT-116 colon = test system: HCT-116 colon
A498 renal = test system: A498 renal
M14 melanoma = test system: M14 melanoma
HCC-2998 colon = test system: HCC-2998 colon
MALME-3M melanoma = test system: MALME-3M melanoma
KM12 colon = test system: KM12 colon
SR leukemia = test system: SR leukemia

SMILES	TGI (TK-10 renal)	TGI (RXF 393 renal) [µM]	TGI (A549 NSCLC)	TGI (HCT-116 colon)	TGI (A498 renal)	TGI (M14 melanoma)	TGI (HCC-2998 colon)	TGI (MALME-3M melanoma)	TGI (KM12 colon)	TGI (SR leukemia) [µM]	GI50 (TK-10 renal) [µM]	GI50 (RXF 393 renal) [µM]	GI50 (A549 NSCLC) [µM]	GI50 (HCT-116 colon) [µM]	GI50 (A498 renal) [µM]	GI50 (M14 melanoma) [µM]	GI50 (MALME-3M melanoma) [µM]	GI50 (KM12 colon) [µM]	GI50 (SR leukemia) [µM]	GI50 (HCC-2998 colon) [µM]
C/C(=N/N(C=O)C[n+]1ccccc1)C(CN(CC(C)C)CC(C)C)C(=O)Nc1ccc(C)cc1C (stereo not given)	> 100 µM	> 100	> 100 µM	> 100 µM	> 100 µM	> 100 µM	> 100 µM	> 100 µM	> 100 µM	> 100	–	–	–	–	–	–	–	–	–	–
CON(C)C(=O)C(C)NC(=O)OCc1ccccc1 (stereo not given)	> 100 µM	> 100	> 100 µM	> 100 µM	> 100 µM	> 100 µM	> 100 µM	> 100 µM	> 100 µM	> 100	–	–	–	–	–	–	–	–	–	–
COc1ccc(Cl)cc1Nc1nc(C(F)(F)F)ccc1C(=O)NN	> 100 µM	> 21.4	> 100 µM	> 100 µM	63 µM	13 µM	9.82 µM	30.2 µM	> 100 µM	3.56	3.81	1.68	18.4	4.76	1.51	2.38	3.21	9.08	0.404	–
O=C(C(=O)c1ccc(Cc2ccc(C(=O)C(=O)c3ccccc3)cc2)cc1)c1ccccc1	> 100 µM	> 100	> 100 µM	> 100 µM	> 100 µM	> 100 µM	> 100 µM	> 100 µM	> 100 µM	–	–	–	–	–	–	–	–	–	–	–
CC[C@H](C)[C@H](NC(=O)c1cnccn1)C(=O)N(C)[C@H](C[C@@H](OC(C)=O)c1nc(C(=O)N[C@@H](Cc2ccccc2)C[C@H](C)C(=O)OC)cs1)C(C)C	> 33.3 µM	–	> 33.3 µM	> 33.3 µM	3.15 µM	2.76 µM	> 33.3 µM	> 33.3 µM	> 33.3 µM	> 33.3	7.18	–	3.22	1.19	0.907	0.81	3.3	0.107	0.048	1.35
NS(=O)(=O)c1ccc(N2Cc3cc(Cl)ccc3OC3=C2C(=O)N(CC2CCCCC2)C3=O)cc1	2.48 µM	1.77	3.99 µM	0.44 µM	2.85 µM	2.95 µM	3.51 µM	2.83 µM	4.08 µM	0.839	1.22	0.495	2.13	0.208	1.26	1.25	1.3	1.83	0.284	1.84
N#CC(C#N)SCc1ccccc1	> 100 µM	79	> 100 µM	75.5 µM	> 100 µM	> 100 µM	> 100 µM	> 100 µM	> 100 µM	–	–	–	–	–	–	–	–	–	–	–
CC1=C(C(=O)NC2CCCCC2)CC(C(=O)NC2CCCCC2)=C(C)N1	> 100 µM	> 100	> 100 µM	> 100 µM	> 100 µM	> 100 µM	> 100 µM	> 100 µM	> 100 µM	> 100	–	–	–	–	–	–	–	–	–	–
Nc1cc(N)c2nc(-c3ccccc3)c(Oc3ccc(F)cc3)nc2c1	46.3 µM	46.5	46.3 µM	80.7 µM	39.6 µM	45 µM	–	–	40.3 µM	> 100	20.4	21.1	24.2	14.8	21.9	17.1	–	14.5	8.15	–
Cc1cc(O)c2c(c1)C(O)(c1ccc3c(c1O)C(=O)c1c(O)cc(C)cc1C3(O)C1OC(CO)C(O)C(O)C1O)c1cccc(O)c1C2=O (stereo not given)	27.2 µM	24.7	32.2 µM	24.1 µM	26.5 µM	30 µM	29.5 µM	25.5 µM	24 µM	30.9	–	–	–	–	–	–	–	–	–	–
CC12CC3(C)CC(C)(C1)CC(N=[N+]=[N-])(C2)C3	> 100 µM	> 100	> 100 µM	> 100 µM	> 100 µM	> 100 µM	> 100 µM	> 100 µM	> 100 µM	> 100	–	–	–	–	–	–	–	–	–	–
COc1cc(/C=C2\CN(C)CC3=C2Nc2nc(SC)[nH]c(=O)c2C3c2cc(OC)c(OC)c(OC)c2)cc(OC)c1OC (stereo not given)	18.9 µM	3.45	13.7 µM	3.17 µM	21.5 µM	9.44 µM	3.63 µM	9.44 µM	3.21 µM	> 100	6.06	1.81	3.26	1.66	9.58	2.98	2.82	1.7	1.48	1.91
CSc1nc2c(c(O)c(C)c(=O)n2C2OC(COC(C)=O)C(OC(C)=O)C(OC(C)=O)C2OC(C)=O)c(=O)n1C (stereo not given)	> 100 µM	> 100	> 100 µM	> 100 µM	> 100 µM	> 100 µM	> 100 µM	> 100 µM	> 100 µM	–	–	–	–	–	–	–	–	–	–	–
Cc1cccc(NC(=O)c2sc3nc4c(cc3c2N)CCCC4)c1C	> 100 µM	0.733	> 100 µM	> 100 µM	0.981 µM	> 100 µM	> 100 µM	> 100 µM	> 100 µM	> 100	23.3	0.233	0.612	0.435	0.232	0.355	0.614	0.342	0.276	1.59
COC(=O)c1ccc2c(c1)C(NC(C)=O)CCc1cc(OC)c(OC)c(OC)c1-2 (stereo not given)	> 100 µM	6.65	> 100 µM	0.391 µM	4.27 µM	> 31.6 µM	0.706 µM	> 100 µM	0.219 µM	2.68	–	–	–	–	–	–	–	–	–	–
O=c1nc(-c2ccccc2)c2c3c(cccn13)CCC2	> 100 µM	> 100	> 100 µM	> 100 µM	> 100 µM	> 100 µM	> 100 µM	> 100 µM	> 100 µM	> 100	–	–	–	–	–	–	–	–	–	–

SMILES	TGI (TK-10 renal)	TGI (RXF 393 renal) [µM]	TGI (A549 NSCLC)	TGI (HCT-116 colon)	TGI (A498 renal)	TGI (M14 melanoma)	TGI (HCC-2998 colon)	TGI (MALME-3M melanoma)	TGI (KM12 colon)	TGI (SR leukemia) [µM]	GI50 (TK-10 renal) [µM]	GI50 (RXF 393 renal) [µM]	GI50 (A549 NSCLC) [µM]	GI50 (HCT-116 colon) [µM]	GI50 (A498 renal) [µM]	GI50 (M14 melanoma) [µM]	GI50 (MALME-3M melanoma) [µM]	GI50 (KM12 colon) [µM]	GI50 (SR leukemia) [µM]	GI50 (HCC-2998 colon) [µM]
COc1cc(C2c3cc4c(cc3[C@@H](Nc3ccc(N(C)C)cc3)[C@H]3COC(=O)C23)OCO4)cc(OC)c1O (stereo not given in full)	11.6 µM and 27.2 µM	4.33	2.02 µM and 3.09 µM	11.7 µM and 20.2 µM	3.42 µM and 10.2 µM	8.61 µM and 16.2 µM	3.89 µM and 8.71 µM	12.1 µM and 15 µM	4.49 µM and 14.3 µM	0.924	8.85	–	0.173	5.52	0.643	1.44	1.6	3.34	–	2.36
CC[O-].CC[O-].O=C1C(=C([O-])c2ccccc2)C(=O)c2ccccc21.O=C1C(=C([O-])c2ccccc2)C(=O)c2ccccc21.[Ti+4]	–	> 100	> 100 µM	> 100 µM	> 100 µM	> 100 µM	> 100 µM	> 100 µM	–	–	–	> 100	> 100	> 100	> 100	> 100	> 100	–	–	> 100
S=C(N/N=C/c1cc(Cl)cc(Cl)c1)NC12CC3CC(CC(C3)C1)C2	19.1 µM	> 37.2	> 100 µM	> 100 µM	7.73 µM	> 100 µM	> 100 µM	50.7 µM	> 100 µM	> 32	4.44	4.19	3.51	5.24	2.19	65	5.12	> 100	5.02	> 100
C/C(=N\O)c1ccc(Nc2cc(-n3nnc4ccccc43)nc3ccccc23)cc1	14.2 µM	–	> 41.3 µM	23.7 µM	30.8 µM	14.9 µM	–	36.1 µM	10.9 µM	74.9	3.14	–	8.42	7.64	7.25	5	11.2	2.98	18.7	–
CC(O)CNC1=CC(=O)C(=O)c2ccccc21 (stereo not given)	70.4 µM	> 100	39.5 µM	33.9 µM	62.9 µM	32.1 µM	26.5 µM	17.7 µM	56.2 µM	> 100	–	–	–	–	–	–	–	–	–	–
CC(=O)c1cccc(N(/C=C/C(=O)C(F)(F)F)CC(=O)c2ccc(Cl)cc2)c1	> 100 µM	> 100	> 100 µM	> 100 µM	> 100 µM	> 100 µM	> 100 µM	> 100 µM	> 100 µM	–	> 100	> 100	> 100	> 100	> 100	> 100	> 100	> 100	–	> 100
C[C@]12CC[C@@H]3c4ccc(O)c([N+](=O)[O-])c4CC[C@H]3[C@@H]1CC[C@@H]2NS(=O)(=O)c1ccc(C(F)(F)F)cc1	7.26 µM	–	6.07 µM	2.99 µM	3.48 µM	3.91 µM	4.02 µM	5.41 µM	3.51 µM	4.14	2.77	–	1.98	1.6	1.07	1.92	1.99	1.76	1.65	2.05
O=C(O)c1cc[c]([Hg][S]c2ncnc3nc[nH]c23)cc1	14.3 µM	18.8	33.7 µM	22.3 µM	> 87.1 µM	14 µM	–	17.9 µM	> 50.1 µM	7.16	2.59	2.95	16.4	4.89	> 35.3	2.18	3.35	14.3	1.32	–
COc1cc(-c2csc(NC(=O)c3cc(C(F)(F)F)cc(C(F)(F)F)c3)n2)cc(OC)c1OC	> 100 µM	8.94	> 100 µM	–	> 100 µM	> 100 µM	> 100 µM	–	> 100 µM	11.6	2.49	1.96	2.58	–	2.63	2.91	–	2.86	2.67	3.2
CC(C)N(C(C)C)[PH+]1O[PH+](N(C(C)C)C(C)C)O[PH+](N(C(C)C)C(C)C)O[PH+](N(C(C)C)C(C)C)O[PH+](N(C(C)C)C(C)C)O1.[C-]#[O+].[C-]#[O+].[C-]#[O+].[C-]#[O+].[C-]#[O+].[C-]#[O+].[C-]#[O+].[Cr].[Cr] (stereo not given)	> 100 µM	> 100	> 100 µM	> 100 µM	> 100 µM	> 100 µM	> 100 µM	> 100 µM	> 100 µM	–	> 100	> 100	> 100	> 100	> 100	> 100	> 100	> 100	–	> 100
CCc1nc(N)nc(N)c1-c1ccc([N+](=O)[O-])c(NCc2ccccc2)c1	53.2 µM	52.7	24.8 µM	> 47.3 µM	32.9 µM	39.9 µM	36.7 µM	–	49.2 µM	31.1	–	–	–	–	–	–	–	–	–	–
CC(C)N(C(=O)C12C3C4C1C1C2C3C41C(O)C(C)(C)C)C(C)C (stereo not given)	–	–	> 50 µM	> 50 µM	> 50 µM	> 50 µM	> 50 µM	> 50 µM	–	> 50	–	–	–	–	–	–	–	–	–	–
CC(C)c1ccc2nc3ccc(C(=O)NCCN(C)C)cn3c(=O)c2c1	34.3 µM	–	34.7 µM	27.7 µM	30.8 µM	28.3 µM	31.7 µM	23.1 µM	33 µM	63	–	–	–	–	–	–	–	–	–	–
Clc1ccccc1NN(Cc1ccccn1)c1ccccc1Cl	–	29.2	37.2 µM	28.8 µM	34.9 µM	38.3 µM	–	37.4 µM	32.9 µM	34.1	–	–	–	–	–	–	–	–	–	–
CSc1ccc(C2=Nn3c(nnc3-c3ccc(F)c(Cl)c3)SC2)cc1	21.2 µM	19.4	29.7 µM	23.4 µM	30.2 µM	28.4 µM	> 100 µM	10.9 µM	45.1 µM	–	7.52	4.46	12.5	9.85	10	6.73	2.01	7.78	–	24
O=C1c2ccccc2N2OC3(N4CCCC4)CCCC3C12c1ccccc1 (stereo not given)	–	> 100	> 100 µM	> 100 µM	> 100 µM	> 100 µM	> 100 µM	> 100 µM	–	> 100	–	–	–	–	–	–	–	–	–	–

From PubChem BioAssay (NCI)
